Patent US6855829B2, “3-fluoro-2-oxindole modulators of KCNQ potassium channels and use thereof in treating migraine and mechanistically related disease” (Bristol-Myers Squibb Company, priority 2001, dated 2005)
Entries after “also recorded” stand apart in the source; their conditions may differ. Where two headings read alike, the source gives them in different places.

How the values were obtained:
[1] = system: SSS-stimulated trigeminal activity; settings: cited from earlier work
human KCNQ5 (hKCNQ5) = human KCNQ5 (hKCNQ5) (Homo sapiens, UniProt Q9NR82); assay: Two-electrode voltage clamp, Xenopus oocyte-expressed hKCNQ5-mediated outward currents; type: cell-based; settings: Xenopus oocytes, n=3, single concentration (10 or 20 μM)
human KCNQ5 (hKCNQ5), sequence (Q9NR82 whole entry): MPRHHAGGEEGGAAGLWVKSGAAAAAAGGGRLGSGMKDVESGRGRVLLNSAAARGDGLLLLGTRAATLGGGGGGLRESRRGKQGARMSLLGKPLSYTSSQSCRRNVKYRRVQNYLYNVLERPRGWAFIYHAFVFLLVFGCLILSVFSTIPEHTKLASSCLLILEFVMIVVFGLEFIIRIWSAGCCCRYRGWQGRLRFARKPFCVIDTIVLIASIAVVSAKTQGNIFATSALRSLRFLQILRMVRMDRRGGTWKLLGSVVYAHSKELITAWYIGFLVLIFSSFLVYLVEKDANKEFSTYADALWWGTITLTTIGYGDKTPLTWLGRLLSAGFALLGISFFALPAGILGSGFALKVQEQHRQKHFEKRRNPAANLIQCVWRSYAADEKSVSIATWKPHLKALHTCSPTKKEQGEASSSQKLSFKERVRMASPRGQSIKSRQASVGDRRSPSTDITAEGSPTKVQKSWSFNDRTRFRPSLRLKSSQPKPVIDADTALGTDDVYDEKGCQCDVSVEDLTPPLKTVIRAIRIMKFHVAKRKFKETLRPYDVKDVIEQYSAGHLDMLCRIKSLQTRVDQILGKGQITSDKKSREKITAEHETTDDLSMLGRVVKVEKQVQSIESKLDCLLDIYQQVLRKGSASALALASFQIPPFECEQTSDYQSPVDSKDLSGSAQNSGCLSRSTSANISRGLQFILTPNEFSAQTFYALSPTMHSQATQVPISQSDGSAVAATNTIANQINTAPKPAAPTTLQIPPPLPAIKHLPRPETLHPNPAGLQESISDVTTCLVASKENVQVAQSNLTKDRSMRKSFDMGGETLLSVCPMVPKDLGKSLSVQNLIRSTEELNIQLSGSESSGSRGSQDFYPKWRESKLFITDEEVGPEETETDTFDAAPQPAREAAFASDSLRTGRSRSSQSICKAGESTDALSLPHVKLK
Experimental: (§1) The ability of the compounds described herein to open KCNQ channels and increase whole-cell outward (K^+) KCNQ-mediated currents was assessed under voltage-clamp conditions by determining their ability to increase cloned […] KCNQ2 (mKCNQ2)-mediated, heteromultimeric murine KCNQ2/3 (mKCNQ2/3)-mediated, and heterologous human KCNQ5 (hKCNQ5)-mediated outward currents expressed in Xenopus oocytes. Oocytes were prepared and injected using standard techniques; each oocyte was injected with approximately 50 nl of mKCNQ2, or hKCNQ5 cRNA. In the case of mKCNQ2/3 heteromultimeric channel expression, equal amounts (25-50 nL) of each cRNA were co-injected.
(§2) Following injection, oocytes were maintained at 17° C. in ND96 medium containing (in mM): NaCl, 90; KCl, 1.0; CaCl2, 1.0; MgCl2, 1.0; HEPES, 5.0; pH 7.5. Horse serum (5%) and penicillin/streptomycin (5%) were added to the incubation medium. Recording commenced 2-6 days following mRNA injection. […]
(§3) Frog (Xenopus laevis) oocytes were impaled with electrodes (1-2 MΩ) and standard 2-electrode voltage clamp techniques were employed to record whole-cell membrane currents. […] Compounds were evaluated at a single concentration (10 or 20 μM), and the effect of the selected compounds of Formula I on KCNQ2 current was expressed as the percent of control current. […]

[2] = system: cortical spreading depression; assay: Cortical spreading depression elicited by KCl application; type: in vivo; settings: rat, 0.1, 1.0, 5.0, 10.0 and 30.0 mg/kg i.v. vs vehicle (overall ANOVA p<0.001)
Experimental: (§4) Male Long-Evans rats (Harlan, 250-400 g) were used in the experiments described in this example. Prior to testing, rats were allowed access to food and water ad libitum and were maintained on a 12:12 hours light/dark cycle. Rats were group housed in an Association for Assessment and Accreditation of Laboratory Animal Care (A.A.A.L.A.C.) accredited facility and cared for in strict compliance with all applicable regulations.
Rats were anesthetized with urethane anesthesia (1.2 g/kg i.p.), implanted with a jugular vein catheter for drug injections, and placed in a stereotaxic frame. The skull was exposed and a small hole (approximately 2 mm by 3 mm) was drilled in the skull rostral to the lambdoid suture using a microdrill and steel burr creating a “well”. The dura was disrupted and a drop of mineral oil was placed in this well. Crystalline KCl was later applied to the well for 10 minutes to elicit spreading depression. Typically, this application produced a long-lasting series of spreading depressions.
Two additional holes were placed in the skull unilaterally at 4 and 8 mm rostral to the application hole. Silver wire electrodes were placed in these latter holes and secured to the skull using acrylic cement. […]
Differences between control and drug conditions were assessed using analyses of variance (ANOVA) and appropriate post-hoc analyses. […]

[3] = system: SSS-stimulated field responses recorded in the trigeminal nucleus caudalis; assay: SSS-stimulated trigeminal field response (in vivo model of migraine); parameters: species or system rat
Experimental: as §4
SSS stimulation and recording were performed in a manner consistent with previously published methods using cat (K. L. Hoskin et al., 1996, Brain, 119:101-108) and rat (M. J. Cumberbatch et al., 1998, Eur. J. Pharmacol., 362:43-46; and M. J. Cumberbatch et al., 1999, Br. J. Pharmacol., 126:1478-1486) animal models. Rats were anesthetized with 1.2 g/kg i.p. urethane (#U-2500, Sigma Chemical Company, St. Louis, Mo.) and given supplemental urethane as needed. In the case of intravenous (i.v.) drug administration (e.g., (+)-3-[5-Chloro-2-[(2,2,2-trifluoroethoxy)phenyl]-1,3-dihydro-3-fluoro-6-(trifluoromethyl)-2H-indol-2-one), the jugular veins of the rats were cannulated using sylastic tubing pre-filled with vehicle. […]
Stimulated field responses were recorded in the trigeminal nucleus caudalis using Teflon coated stainless-steel microelectrodes (5 MΩ impedance, Frederick Haer, Brunswick, Me.) and amplified and filtered (0.1 Hz-10 kHz) using a differential amplifier (#IsoDAM8, World Precision Instruments, Sarasota, Fla.). […]
Three baseline measures (i.e., 100% of control), each consisting of 100 evoked trigeminal field potentials, were sampled prior to drug injection. […] Following injection of test substances, data were sampled for 1 hour, averaged into 5 minute bins (90 evoked potentials) and expressed as a percent change from average baseline values for the purposes of statistical analysis. Data were analyzed using repeated measures analyses of variance comparing vehicle and drug effects. […]

murine KCNQ2 (mKCNQ2) = murine KCNQ2 (mKCNQ2) (Mus musculus, UniProt Q9Z351); assay: Two-electrode voltage clamp, Xenopus oocyte expressed mKCNQ2-mediated outward currents; type: cell-based; settings: 10 μM, Xenopus oocytes
murine KCNQ2 (mKCNQ2), sequence (Q9Z351 whole entry): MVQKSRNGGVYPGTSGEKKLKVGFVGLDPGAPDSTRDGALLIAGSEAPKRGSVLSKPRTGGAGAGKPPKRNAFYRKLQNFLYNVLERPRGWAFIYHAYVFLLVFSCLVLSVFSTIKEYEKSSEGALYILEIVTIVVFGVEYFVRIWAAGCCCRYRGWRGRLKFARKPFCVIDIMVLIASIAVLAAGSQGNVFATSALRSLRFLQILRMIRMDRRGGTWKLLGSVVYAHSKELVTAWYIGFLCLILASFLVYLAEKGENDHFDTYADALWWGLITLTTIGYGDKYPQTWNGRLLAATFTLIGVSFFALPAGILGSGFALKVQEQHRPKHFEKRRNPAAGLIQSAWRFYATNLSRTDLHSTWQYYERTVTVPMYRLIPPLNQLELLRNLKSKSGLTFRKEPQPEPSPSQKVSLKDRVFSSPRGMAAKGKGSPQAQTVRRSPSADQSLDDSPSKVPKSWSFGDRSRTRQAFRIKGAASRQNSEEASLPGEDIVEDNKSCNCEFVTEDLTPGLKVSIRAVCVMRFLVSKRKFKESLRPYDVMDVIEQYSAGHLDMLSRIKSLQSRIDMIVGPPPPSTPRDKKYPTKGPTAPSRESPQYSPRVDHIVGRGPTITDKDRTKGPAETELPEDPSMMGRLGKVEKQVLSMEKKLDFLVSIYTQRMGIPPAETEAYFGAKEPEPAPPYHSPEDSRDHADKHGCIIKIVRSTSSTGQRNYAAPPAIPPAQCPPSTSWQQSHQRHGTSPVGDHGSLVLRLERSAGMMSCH
Experimental: as §1, §2, §3

For `CNS(=O)(=O)CCc1ccc2[nH]cc(C3CCN(C)CC3)c2c1` [naratriptan], which “physiological measures of SSS-stimulated trigeminal activity” value (“physiological measures” below) ([1]; literature reports) is on record?
Its value is “decrease”.

For `O=C1Nc2cc(C(F)(F)F)ccc2C1(F)c1cc(Cl)ccc1OCC(F)(F)F` (single isomer, unassigned; (+)) [Compound 1], which “human KCNQ5-mediated outward currents, % of control” value (human KCNQ5 (hKCNQ5)) is on record?
Its value is 157.4+/−6.0 % of control.

What about the “number of spreading depressions produced by a single 10 min KCl application” value [2] of the same compound?
Its value is “significant reduction”.

And the “decrease in trigeminal field potentials from control amplitude” value ([3]; rat, 50 mg/kg i.v. (highest dose))?
The value was 86.7±1.67%.

What about the “effect on SSS-stimulated trigeminal field response” value ([3]; rat, doses 0.1, 1.0, 10.0, 30.0 and 50.0 mg/kg i.v., vs vehicle (p<0.01 in all cases; overall ANOVA p<0.001)) of the same compound?
Its value is “dose-dependent reduction; also recorded: significant reduction; also recorded: dose-dependent decrease”.

What about the “increase of KCNQ2 current over the KCNQ2 current in controls” value (murine KCNQ2 (mKCNQ2)) of the same compound?
Its value is over 150%.

With `CN(C)CCc1c[nH]c2ccc(Cn3cncn3)cc12` [rizatriptan] as the compound, how does the “physiological measures” value ([1]; literature reports) read?
The value was “decrease”.

Which “effect on SSS stimulation evoked trigeminal field potential amplitude” value ([3]; urethane anesthetized rats, 1 mg/kg i.v.) does the source give for `O=C(NCc1ccc(C(F)(F)F)cc1)c1cnc(N2CCCC2)nc1C(F)(F)F` [Compound 2, 2-(Pyrrolidin-1-yl)-4-(trifluoromethyl)-N-[[4-(trifluoromethyl)phenyl]methyl]pyrimidine-5-carboxamide] here?
Its value is “statistically significant (p=0.005) decrease”.

Which “physiological measures” value ([1]; following blood-brain-barrier disruption, literature report) does the source give for `CNS(=O)(=O)Cc1ccc2[nH]cc(CCN(C)C)c2c1` [sumatriptan] here?
Its value is “decrease”.

With `CN(C)CCc1c[nH]c2ccc(C[C@H]3COC(=O)N3)cc12` [zolmitriptan] as the compound, how does the “physiological measures” value ([1]; literature reports) read?
The value was “decrease”.

With `CN1C[C@H](C(=O)N[C@]2(C)O[C@@]3(O)[C@@H]4CCCN4C(=O)[C@H](Cc4ccccc4)N3C2=O)C[C@@H]2c3cccc4[nH]cc(c34)C[C@H]21` [dihydroergotamine] as the compound, how does the “physiological measures” value ([1]; literature reports) read?
The value was “decrease”.
